What is called IC50 is the concentration needed to halve the response being measured.

The target of this assay is T1, human PAR4 (Homo sapiens, UniProt Q96RI0).
T1 construct: expressed in transfected cells; host or cells: HEK293 PAR4 Clone 1.2A (BMS Arctic ID 383940)
T1 sequence (Q96RI0 18-385): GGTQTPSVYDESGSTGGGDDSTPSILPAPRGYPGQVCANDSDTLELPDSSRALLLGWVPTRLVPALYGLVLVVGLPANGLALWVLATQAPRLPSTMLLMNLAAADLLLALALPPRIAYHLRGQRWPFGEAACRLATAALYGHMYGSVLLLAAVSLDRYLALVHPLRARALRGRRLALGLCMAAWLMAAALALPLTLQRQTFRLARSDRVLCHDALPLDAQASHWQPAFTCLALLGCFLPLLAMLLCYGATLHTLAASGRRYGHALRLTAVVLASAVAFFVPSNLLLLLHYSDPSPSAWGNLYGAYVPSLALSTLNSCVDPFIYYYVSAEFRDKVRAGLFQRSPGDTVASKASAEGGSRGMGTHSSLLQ
Put plainly: PAR4 FLIPR assay: antagonism of agonist-peptide-induced calcium mobilization in PAR4-expressing HEK293 cells. Format: cell-based. Particulars: H-Ala-Phe(4-F)-[…]NH2-induced intracellular calcium mobilization, 11-point curves. Background: Calcium flux is commonly read through the fluorescence of an indicator in the cells.
For the compound `COc1cnc2c(-c3nc4cc(F)c(O[C@@H](C)[C@@H](C)OC(=O)Nc5ccnc(OCCC(C)(C)O)c5)cc4s3)cc(C)cc2n1` [Example 563, (2R,3S)-3-((5-fluoro-2-(2-methoxy-7-methylquinoxalin-5-yl)benzo[d]thiazol-6-yl)oxy)butan-2-yl (2-(3-hydroxy-3-methylbutoxy)pyridin-4-yl)carbamate], the IC50 is 2.8 nM.

With `COc1cnc2c(-c3nc4cc(F)c(OC[C@@H](C)OC(=O)Nc5cnc(CCO)nc5)cc4s3)cc(C)cc2n1` [Example 564, (R)-1-((5-fluoro-2-(2-methoxy-7-methylquinoxalin-5-yl)benzo[d]thiazol-6-yl)oxy)propan-2-yl (2-(2-hydroxyethyl)pyrimidin-5-yl)carbamate], the IC50 was determined as 3.7 nM.

As to `COc1cnc2c(-c3nc4cc(F)c(O[C@@H](C)[C@@H](C)OC(=O)Nc5cnc(CCO)nc5)cc4s3)cc(C)cc2n1` [Example 565, (2R,3S)-3-((5-fluoro-2-(2-methoxy-7-methylquinoxalin-5-yl)benzo[d]thiazol-6-yl)oxy)butan-2-yl (2-(2-hydroxyethyl)pyrimidin-5-yl)carbamate], the IC50 stood at 3 nM.

As to `CCOc1cnc2c(-c3nc4cc(F)c(O[C@@H](C)[C@@H](C)OC(=O)Nc5cnc(CCO)nc5)cc4s3)cc(C)cc2n1` [Example 566, (2R,3S)-3-((2-(2-ethoxy-7-methylquinoxalin-5-yl)-5-fluorobenzo[d]thiazol-6-yl)oxy)butan-2-yl (2-(2-hydroxyethyl)pyrimidin-5-yl)carbamate], the IC50 came to 1.8 nM.

On to `COc1cnc2c(-c3nc4cc(F)c(OC[C@@H](C)OC(=O)Nc5ccnc(OCCC(C)(C)O)c5)cc4s3)cc(C)cc2n1` [Example 567, (R)-1-((5-fluoro-2-(2-methoxy-7-methylquinoxalin-5-yl)benzo[d]thiazol-6-yl)oxy)propan-2-yl (2-(3-hydroxy-3-methylbutoxy)pyridin-4-yl)carbamate], for which the IC50 was 5.9 nM.

As to `CCOc1cnc2c(-c3nc4cc(F)c(O[C@@H](C)[C@@H](C)OC(=O)Nc5cnc(OCCO)nc5)cc4s3)cc(C)cc2n1` [Example 568, (2R,3S)-3-((2-(2-ethoxy-7-methylquinoxalin-5-yl)-5-fluorobenzo[d]thiazol-6-yl)oxy)butan-2-yl (2-(2-hydroxyethoxy)pyrimidin-5-yl)carbamate], the IC50 amounted to 2.4 nM.

Take `COc1cnc2c(-c3nc4cc(F)c(OC[C@@H](C)OC(=O)Nc5cnc(OCCC(C)(C)O)nc5)cc4s3)cc(C)cc2n1` [Example 569, (R)-1-((5-fluoro-2-(2-methoxy-7-methylquinoxalin-5-yl)benzo[d]thiazol-6-yl)oxy)propan-2-yl (2-(3-hydroxy-3-methylbutoxy)pyrimidin-5-yl)carbamate]: the IC50 was 8.2 nM.

With `COc1cnc2c(-c3nc4cc(F)c(O[C@@H](C)[C@@H](C)OC(=O)Nc5cnc(OCCC(C)(C)O)nc5)cc4s3)cc(C)cc2n1` [Example 570, (2R,3S)-3-((5-fluoro-2-(2-methoxy-7-methylquinoxalin-5-yl)benzo[d]thiazol-6-yl)oxy)butan-2-yl (2-(3-hydroxy-3-methylbutoxy)pyrimidin-5-yl)carbamate], the IC50 is 6.6 nM.

In the case of `COc1cnc2c(-c3nc4cc(F)c(O[C@@H](C)[C@@H](C)OC(=O)Nc5ccc(OCCO)nc5)cc4s3)cc(C)cc2n1` [Example 571, (2R,3S)-3-((5-fluoro-2-(2-methoxy-7-methylquinoxalin-5-yl)benzo[d]thiazol-6-yl)oxy)butan-2-yl (6-(2-hydroxyethoxy)pyridin-3-yl)carbamate], the IC50 was 1 nM.

For `COc1cnc2c(-c3nc4cc(F)c(OC[C@@H](C)OC(=O)Nc5ccc(OCCO)nc5)cc4s3)cc(C)cc2n1` [Example 572, (R)-1-((5-fluoro-2-(2-methoxy-7-methylquinoxalin-5-yl)benzo[d]thiazol-6-yl)oxy)propan-2-yl (6-(2-hydroxyethoxy)pyridin-3-yl)carbamate], the IC50 stood at 0.9 nM.

Turning to `COc1cnc2c(-c3nc4cc(F)c(O[C@@H](C)[C@@H](C)OC(=O)Nc5ccc(OCC(F)(F)CO)nc5)cc4s3)cc(C)cc2n1` [Example 573, (2R,3S)-3-((5-fluoro-2-(2-methoxy-7-methylquinoxalin-5-yl)benzo[d]thiazol-6-yl)oxy)butan-2-yl (6-(2,2-difluoro-3-hydroxypropoxy)pyridin-3-yl)carbamate], the IC50 was found to be 1.6 nM.

Turning to `COc1cnc2c(-c3nc4cc(F)c(OC[C@@H](C)OC(=O)Nc5ccc(OCC(F)(F)CO)nc5)cc4s3)cc(C)cc2n1` [Example 574, (R)-1-((5-fluoro-2-(2-methoxy-7-methylquinoxalin-5-yl)benzo[d]thiazol-6-yl)oxy)propan-2-yl (6-(2,2-difluoro-3-hydroxypropoxy)pyridin-3-yl)carbamate], the IC50 is 2 nM.

For the compound `COc1cnc2c(-c3nc4cc(F)c(O[C@@H](C)[C@@H](C)OC(=O)Nc5cnc(OCC(C)(C)O)nc5)cc4s3)cc(C)cc2n1` [Example 575, (2R,3S)-3-((5-fluoro-2-(2-methoxy-7-methylquinoxalin-5-yl)benzo[d]thiazol-6-yl)oxy)butan-2-yl (2-(2-hydroxy-2-methylpropoxy)pyrimidin-5-yl)carbamate], the IC50 turned out to be 0.6 nM.

With `COc1cnc2c(-c3nc4cc(F)c(OC[C@@H](C)OC(=O)Nc5cnc(OCC(C)(C)O)nc5)cc4s3)cc(C)cc2n1` [Example 576, (R)-1-((5-fluoro-2-(2-methoxy-7-methylquinoxalin-5-yl)benzo[d]thiazol-6-yl)oxy)propan-2-yl (2-(2-hydroxy-2-methylpropoxy)pyrimidin-5-yl)carbamate], the IC50 came to 1.2 nM.

`COc1cnc2c(-c3nc4cc(F)c(O[C@@H](C)[C@@H](C)OC(=O)Nc5cnc(CC(C)(C)O)nc5)cc4s3)cc(C)cc2n1` [Example 577, (2R,3S)-3-((5-fluoro-2-(2-methoxy-7-methylquinoxalin-5-yl)benzo[d]thiazol-6-yl)oxy)butan-2-yl (2-(2-hydroxy-2-methylpropyl)pyrimidin-5-yl)carbamate]: the IC50 came to 1 nM.

Take `COc1cnc2c(-c3nc4cc(F)c(O[C@@H](C)[C@@H](C)OC(=O)Nc5cnc(OC[C@@H](C)O)nc5)cc4s3)cc(C)cc2n1` [Example 578, (2R,3S)-3-((5-fluoro-2-(2-methoxy-7-methylquinoxalin-5-yl)benzo[d]thiazol-6-yl)oxy)butan-2-yl (2-((R)-2-hydroxypropoxy)pyrimidin-5-yl)carbamate]: the IC50 was determined as 5.8 nM.

For the compound `COc1cnc2c(-c3nc4cc(F)c(O[C@@H](C)[C@@H](C)OC(=O)Nc5cnc(CCO)nc5)cc4s3)cc(Cl)cc2c1` [Example 579, (2R,3S)-3-((2-(6-chloro-3-methoxyquinolin-8-yl)-5-fluorobenzo[d]thiazol-6-yl)oxy)butan-2-yl (2-(2-hydroxyethyl)pyrimidin-5-yl)carbamate], the IC50 came out at 3.3 nM.

Turning to `CCOc1cnc2c(-c3nc4cc(F)c(O[C@@H](C)[C@@H](C)OC(=O)Nc5cnc(OC[C@@H](C)O)nc5)cc4s3)cc(C)cc2n1` [Example 580, (2R,3S)-3-((2-(2-ethoxy-7-methylquinoxalin-5-yl)-5-fluorobenzo[d]thiazol-6-yl)oxy)butan-2-yl (2-((R)-2-hydroxypropoxy)pyrimidin-5-yl)carbamate], the IC50 came to 1.1 nM.
